Data taken from patent publication US20190152946A1, “Novel Compounds” (GlaxoSmithKline Intellectual Property Development Limited, priority 2016, published 2019).

Target: T1, GAK (Homo sapiens, UniProt O14976)
T1 construct: endogenous in cells; host or cells: THP-1
T1 sequence (O14976 1-1311): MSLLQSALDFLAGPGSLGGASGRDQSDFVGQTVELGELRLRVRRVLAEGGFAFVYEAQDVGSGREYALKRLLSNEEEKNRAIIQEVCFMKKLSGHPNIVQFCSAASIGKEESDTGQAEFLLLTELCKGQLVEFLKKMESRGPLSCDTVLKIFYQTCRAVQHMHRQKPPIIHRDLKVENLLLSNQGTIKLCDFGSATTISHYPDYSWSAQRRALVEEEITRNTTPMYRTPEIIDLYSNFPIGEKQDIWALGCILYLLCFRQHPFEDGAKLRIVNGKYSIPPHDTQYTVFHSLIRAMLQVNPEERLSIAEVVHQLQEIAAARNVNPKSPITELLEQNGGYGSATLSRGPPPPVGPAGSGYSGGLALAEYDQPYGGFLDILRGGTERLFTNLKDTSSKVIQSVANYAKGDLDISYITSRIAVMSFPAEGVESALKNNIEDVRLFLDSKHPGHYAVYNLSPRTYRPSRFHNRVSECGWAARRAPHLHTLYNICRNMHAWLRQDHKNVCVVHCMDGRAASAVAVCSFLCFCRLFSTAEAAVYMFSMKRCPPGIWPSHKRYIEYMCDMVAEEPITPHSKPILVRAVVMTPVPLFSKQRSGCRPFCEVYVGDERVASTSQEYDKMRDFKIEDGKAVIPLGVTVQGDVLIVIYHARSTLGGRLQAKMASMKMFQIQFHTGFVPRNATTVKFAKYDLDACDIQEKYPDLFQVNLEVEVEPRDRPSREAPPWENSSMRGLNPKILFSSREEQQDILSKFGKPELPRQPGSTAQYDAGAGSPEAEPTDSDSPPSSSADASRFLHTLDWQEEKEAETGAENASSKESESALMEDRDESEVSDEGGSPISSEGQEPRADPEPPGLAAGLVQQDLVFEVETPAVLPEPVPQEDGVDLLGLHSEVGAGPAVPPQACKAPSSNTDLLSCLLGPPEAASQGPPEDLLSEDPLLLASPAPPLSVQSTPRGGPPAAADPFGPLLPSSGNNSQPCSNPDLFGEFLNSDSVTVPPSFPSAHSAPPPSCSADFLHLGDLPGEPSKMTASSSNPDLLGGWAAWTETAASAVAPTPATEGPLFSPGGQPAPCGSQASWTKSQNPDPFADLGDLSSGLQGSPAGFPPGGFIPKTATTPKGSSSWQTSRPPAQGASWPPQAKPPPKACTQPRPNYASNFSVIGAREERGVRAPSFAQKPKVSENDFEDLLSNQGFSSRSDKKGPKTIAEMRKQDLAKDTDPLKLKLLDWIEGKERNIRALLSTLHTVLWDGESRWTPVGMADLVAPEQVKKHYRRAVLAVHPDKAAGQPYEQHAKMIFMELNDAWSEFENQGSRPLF
Assay: Expression proteomics in THP-1 cells, GAK level
Format: cell-based
Conditions: GAK protein log2 fold change, 24 h, 1.0 μM
Procedure: THP-1 cells were seeded at a concentration of 3×10^6 cells in T175 flasks with 60 mL growth medium (RPM11640+10% FBS). […] of a 10× compound solution prepared in growth medium (DMSO), IAP PROTAC) was added and the cells were treated for the indicated time points (6 or 24 h) at 37° C., 5% CO2. For harvesting the cells were collected into falcon tubes on ice, centrifuged and washed twice in cold PBS (Life technologies). After the last washing step the supernatant was removed and the pellets were snap-frozen in liquid N2 and stored at −80° C. and lysed in 2% SDS for 3 min at 95° C. in a thermomixer (Thermo Fisher Scientific), followed by digestion of DNA with Benzonase at 37° C. for 1.5 h. Lysate was cleared by centrifugation an protein concentration in supernatant was determined by BCA assay.
Leukemia 25, 89-100 (2011).
Samples were dried in vacuo and resuspended in 0.05% trifluoroacetic acid in water. […]
Reporter ion intensities were read from raw data and multiplied with ion accumulation times (the unit is milliseconds) so as to yield a measure proportional to the number of ions;
Nat Biotech 29, 255-265 (2011). this measure is referred to as ion area Savitski, M. M. et al. Delayed Fragmentation and Optimized Isolation Width Settings for Improvement of Protein Identification and Accuracy of Isobaric Mass Tag Quantification on Orbitrap-Type Mass Spectrometers. […]

log2fc_IAP_24 h_1.0 μM_n1 (replicate n1): −2.02 | log2fc_IAP_24 h_1.0 μM_n2 (replicate n2): −2.39
SMILES: CNC(=O)c1ccccc1Nc1nc(Nc2ccc(N3CCN(CCOCCOCCOCCOc4ccc5c(c4)CN(C(=O)[C@@H](NC(=O)[C@H](C)NC)C(C)(C)C)[C@H](C(=O)N[C@@H]4CCCc6ccccc64)C5)CC3)cc2)ncc1Cl [IAP, (S)-7-(2-(2-(2-(2-(4-(4-((5-Chloro-4-((2-(methylcarbamoyl)phenyl)amino)pyrimidin-2-yl)amino)phenyl)piperazin-1-yl)ethoxy)ethoxy)ethoxy)ethoxy)-2-((S)-3,3-dimethyl-2-((S)-2-(methylamino)propanamido)butanoyl)-N-((R)-1,2,3,4-tetrahydronaphthalen-1-yl)-1,2,3,4-tetrahydroisoquinoline-3-carboxamide]
